Laboratory results taken from PubChem BioAssay (NCI).
Values joined by “and” are separate entries in the source; they are usually repeats but may differ in a detail not shown here. Equal values may be shown once.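 Growth conditions: 96-well plates. Treatment: test compound, 48 hours, 5 concentrations. Analysis: linear interpolation between bracketing concentrations; unreached endpoints set to highest concentration. The concentration for 50% growth inhibition is given as GI50. Definition used: TGI = concentration required for complete inhibition of growth.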

Tests used:
Assay in all cases: NCI tumour cell line growth inhibition, 48 h; in the data active means GI50 below about 0.43 µM; inactive means the rest
SNB-75 CNS = system: SNB-75 CNS
MDA-MB-231 breast = system: MDA-MB-231 breast
SK-OV-3 ovarian = system: SK-OV-3 ovarian
SNB-19 CNS = system: SNB-19 CNS
IGROV1 ovarian = system: IGROV1 ovarian
KM12 colon = system: KM12 colon
OVCAR-8 ovarian = system: OVCAR-8 ovarian
UACC-62 melanoma = system: UACC-62 melanoma
UACC-257 melanoma = system: UACC-257 melanoma
NCI-H23 lung = system: NCI-H23 lung
MDA-MB-435 = system: MDA-MB-435
NCI-H522 lung = system: NCI-H522 lung
LOX IMVI melanoma = system: LOX IMVI melanoma
M19-MEL melanoma = system: M19-MEL melanoma
NCI/ADR-RES ovarian = system: NCI/ADR-RES ovarian
EKVX NSCLC = system: EKVX NSCLC
SF-539 CNS = system: SF-539 CNS
CAKI-1 renal = system: CAKI-1 renal
A549 NSCLC = system: A549 NSCLC
SR leukemia = system: SR leukemia
OVCAR-5 ovarian = system: OVCAR-5 ovarian
HCT-116 colon = system: HCT-116 colon
MDA-N = system: MDA-N
U251 CNS = system: U251 CNS
SK-MEL-28 melanoma = system: SK-MEL-28 melanoma
786-0 renal = system: 786-0 renal
HOP-92 NSCLC = system: HOP-92 NSCLC
ACHN renal = system: ACHN renal
SF-268 CNS = system: SF-268 CNS
HCT-15 colon = system: HCT-15 colon
BT-549 breast = system: BT-549 breast
SK-MEL-5 melanoma = system: SK-MEL-5 melanoma
TK-10 renal = system: TK-10 renal
HS 578T breast = system: HS 578T breast
SF-295 CNS = system: SF-295 CNS
UO-31 renal = system: UO-31 renal
PC-3 prostate = system: PC-3 prostate
MCF7 breast = system: MCF7 breast
NCI-H460 lung = system: NCI-H460 lung
MALME-3M melanoma = system: MALME-3M melanoma
K-562 leukemia = system: K-562 leukemia
T-47D breast = system: T-47D breast
SK-MEL-2 melanoma = system: SK-MEL-2 melanoma
NCI-H226 lung = system: NCI-H226 lung
RPMI-8226 leukemia = system: RPMI-8226 leukemia
OVCAR-3 ovarian = system: OVCAR-3 ovarian
RXF 393 renal = system: RXF 393 renal
SN12C renal = system: SN12C renal
OVCAR-4 ovarian = system: OVCAR-4 ovarian
COLO 205 colon = system: COLO 205 colon
DU-145 prostate = system: DU-145 prostate
M14 melanoma = system: M14 melanoma
HOP-62 NSCLC = system: HOP-62 NSCLC
SW-620 colon = system: SW-620 colon
HL-60(TB) leukemia = system: HL-60(TB) leukemia
CCRF-CEM leukemia = system: CCRF-CEM leukemia
A498 renal = system: A498 renal
MOLT-4 leukemia = system: MOLT-4 leukemia
HT29 colon = system: HT29 colon
HCC-2998 colon = system: HCC-2998 colon

S=C(S)N1CCCCC1
68.3 µM and > 406 µM: TGI (RPMI-8226 leukemia)
299 µM: TGI (T-47D breast)
26.2 µM and 45.3 µM: TGI (HCT-116 colon)
82.7 µM: TGI (COLO 205 colon)
137 µM: TGI (KM12 colon)
67 µM and > 406 µM: TGI (SR leukemia)
353 µM: TGI (SK-OV-3 ovarian)
> 406 µM: TGI (SNB-75 CNS) | TGI (MDA-MB-231 breast) | TGI (SNB-19 CNS) | TGI (OVCAR-8 ovarian) | TGI (UACC-257 melanoma) | TGI (NCI-H23 lung) | TGI (EKVX NSCLC) | TGI (A549 NSCLC) | TGI (OVCAR-5 ovarian) | TGI (U251 CNS) | TGI (SK-MEL-28 melanoma) | TGI (786-0 renal) | TGI (HOP-92 NSCLC) | TGI (ACHN renal) | TGI (SF-268 CNS) | TGI (BT-549 breast) | TGI (TK-10 renal) | TGI (HS 578T breast) | TGI (SF-295 CNS) | TGI (NCI-H226 lung) | TGI (OVCAR-3 ovarian) | TGI (RXF 393 renal) | TGI (SN12C renal) | TGI (DU-145 prostate) | TGI (HOP-62 NSCLC)
26.6 µM and 16.3 µM: TGI (LOX IMVI melanoma)
81.5 µM: TGI (SK-MEL-5 melanoma)
100 µM: TGI (IGROV1 ovarian)
inactive: GI50 (SNB-75 CNS) 28 µM | GI50 (IGROV1 ovarian) 55.2 µM and 10.5 µM | GI50 (KM12 colon) 50.2 µM and 51.8 µM | GI50 (OVCAR-8 ovarian) 22.9 µM and 15.9 µM | GI50 (UACC-62 melanoma) 19.8 µM | GI50 (UACC-257 melanoma) 30.7 µM and 38 µM | GI50 (NCI-H23 lung) 36.6 µM | GI50 (MDA-MB-435) 20.4 µM | GI50 (NCI-H522 lung) 28 µM | GI50 (LOX IMVI melanoma) 11.2 µM and 8.18 µM | GI50 (NCI/ADR-RES ovarian) 20.8 µM | GI50 (EKVX NSCLC) 46.5 µM | GI50 (SF-539 CNS) 32.3 µM and 22.7 µM | GI50 (CAKI-1 renal) 19.9 µM | GI50 (A549 NSCLC) 71.6 µM | GI50 (SR leukemia) 17.5 µM and 80.7 µM | GI50 (HCT-116 colon) 12 µM | GI50 (MDA-N) 70.4 µM | GI50 (U251 CNS) 60.3 µM | GI50 (SK-MEL-28 melanoma) 89 µM | GI50 (786-0 renal) 12.9 µM and 64.5 µM | GI50 (HOP-92 NSCLC) 24.9 µM and 116 µM | GI50 (ACHN renal) 19.6 µM and 54.3 µM | GI50 (SF-268 CNS) 26 µM and 106 µM | GI50 (HCT-15 colon) 25.3 µM and 22.8 µM | GI50 (SF-295 CNS) 34 µM and 39.3 µM | GI50 (UO-31 renal) 20.9 µM | GI50 (MALME-3M melanoma) 40.6 µM and 129 µM | GI50 (K-562 leukemia) > 406 µM | GI50 (T-47D breast) 45.7 µM | GI50 (SK-MEL-2 melanoma) 28.2 µM and 54.1 µM | GI50 (NCI-H226 lung) 42.4 µM | GI50 (SN12C renal) 89.7 µM and 49.8 µM | GI50 (OVCAR-4 ovarian) 51 µM | GI50 (M14 melanoma) 10.9 µM | GI50 (HOP-62 NSCLC) 17 µM | GI50 (SW-620 colon) 21.6 µM and 18.4 µM
64.8 µM and > 406 µM: TGI (MALME-3M melanoma)
83.3 µM and > 406 µM: TGI (SF-539 CNS)
70.4 µM and > 406 µM: TGI (PC-3 prostate)
88.3 µM: TGI (MCF7 breast)
93.5 µM and 173 µM: TGI (NCI/ADR-RES ovarian)
85.7 µM and 29.7 µM: TGI (M14 melanoma)
99.1 µM and > 406 µM: TGI (CAKI-1 renal)
85 µM: TGI (NCI-H460 lung)
67.9 µM and > 406 µM: TGI (MDA-MB-435)
295 µM: TGI (OVCAR-4 ovarian)
> 46.9 µM: TGI (M19-MEL melanoma)
84.6 µM and 179 µM: TGI (SK-MEL-2 melanoma)
> 46.3 µM and 82.5 µM: TGI (UACC-62 melanoma)
55.5 µM and 398 µM: TGI (UO-31 renal)
46.6 µM: TGI (MDA-N)
66.1 µM and 63.6 µM: TGI (SW-620 colon)
177 µM: TGI (HCT-15 colon)

N#CC1CCCC2SC(F)(F)C(F)(F)C12 (stereo not drawn)
> 78.3 µM: TGI (K-562 leukemia)
99.3 µM: TGI (MOLT-4 leukemia)
72.7 µM: TGI (SR leukemia)
> 100 µM: TGI (SNB-75 CNS) | TGI (MDA-MB-231 breast) | TGI (SK-OV-3 ovarian) | TGI (SNB-19 CNS) | TGI (IGROV1 ovarian) | TGI (KM12 colon) | TGI (OVCAR-8 ovarian) | TGI (UACC-62 melanoma) | TGI (UACC-257 melanoma) | TGI (NCI-H23 lung) | TGI (MDA-MB-435) | TGI (NCI-H522 lung) | TGI (LOX IMVI melanoma) | TGI (A498 renal) | TGI (NCI/ADR-RES ovarian) | TGI (EKVX NSCLC) | TGI (SF-539 CNS) | TGI (CAKI-1 renal) | TGI (A549 NSCLC) | TGI (OVCAR-5 ovarian) | TGI (HCT-116 colon) | TGI (MDA-N) | TGI (U251 CNS) | TGI (SK-MEL-28 melanoma) | TGI (786-0 renal) | TGI (HOP-92 NSCLC) | TGI (ACHN renal) | TGI (SF-268 CNS) | TGI (HCT-15 colon) | TGI (BT-549 breast) | TGI (SK-MEL-5 melanoma) | TGI (TK-10 renal) | TGI (HS 578T breast) | TGI (SF-295 CNS) | TGI (UO-31 renal) | TGI (PC-3 prostate) | TGI (MCF7 breast) | TGI (NCI-H460 lung) | TGI (MALME-3M melanoma) | TGI (T-47D breast) | TGI (SK-MEL-2 melanoma) | TGI (NCI-H226 lung) | TGI (RPMI-8226 leukemia) | TGI (OVCAR-3 ovarian) | TGI (RXF 393 renal) | TGI (SN12C renal) | TGI (OVCAR-4 ovarian) | TGI (COLO 205 colon) | TGI (HT29 colon) | TGI (DU-145 prostate) | TGI (M14 melanoma) | TGI (HOP-62 NSCLC) | TGI (SW-620 colon) | TGI (HCC-2998 colon)
> 66.7 µM: TGI (CCRF-CEM leukemia)
54.9 µM: TGI (HL-60(TB) leukemia)
